A short description of data set [1]: GI50 against HeLa cells, Cell Titer Glo viability assay. The data set is classed as cell-based, human. The conditions noted are these: human, HeLa cells, 24 h. Here is the method: (§1) RMA activity of the analogues was tested by assessing their abilities to sensitize MRSA to the antibiotic cefazolin (a first-generation cephalosporin). The well characterized strain MRSA ATCC BAA-44 was tested as previously described. […] The minimal inhibitory concentration (MIC), or the lowest concentration at which S. aureus is considered susceptible to an antibacterial, was determined by the standard broth microdilution method detailed in the CLSI handbook. RMA activity was compared by the ratio of MIC/MRC. The half growth inhibitory concentration (GI50) of each analogue against HeLa cells was determined as previously described. […] The luminescence of each sample was recorded in an Envision Multilabel Plate Reader (Perkin Elmer). Results of MICs and MRCs were confirmed by testing in triplicate. The GI50 assay was performed in duplicate.
(ATP-based viability assays read luminescence as a measure of living cells.)

Another data set relates to MRSA-252. Briefly: MIC, scope of antibacterial activity. Type of data set: cell-based, S. aureus. The conditions noted are these: Staphylococcus aureus. Here is the method: as §1
(§2) Furthermore, we explored the scope of the antibacterial activity of 12g in a panel of MRSA and MSSA strains including BAA-44 (MIC=1 μg/mL), MRSA-252 (MIC=2 μg/mL), B. subtilis NR-607 (MIC=2 μg/mL), E. faecium HM-460 (MIC=4 μg/mL), E. faecium 28977 (MIC=2 μg/mL) and MSSA (MIC=0.5 μg/mL).

Another data set deals with MSSA. As to the kind of experiment: MIC, scope of antibacterial activity. The conditions noted are these: Staphylococcus aureus. The data set is classed as cell-based, S. aureus. Here is the method:
as §1, §2

A further data set relates to MRSA ATCC BAA-44. Briefly: Minimal inhibitory concentration (MIC), standard broth microdilution. Type of data set: cell-based, Staphylococcus aureus. The conditions noted are these: MRSA BAA-44 strain. Here is the method: as §1
A general note: Broth dilution looks for growth in wells or tubes with falling amounts of substance.

A further data set has as its system B. subtilis NR-607. Briefly: MIC, scope of antibacterial activity. Type of data set: cell-based. Particulars: Bacillus subtilis, NR607. How it is done: as §1, §2
In another data set the test system is E. faecium HM-460. Briefly: MIC, scope of antibacterial activity. The data set is classed as cell-based. Particulars: Enterococcus faecium, HM460. How it is done:
as §1, §2

The next data set relates to E. faecium 28977. As to the kind of experiment: MIC, scope of antibacterial activity. The data set is classed as cell-based. Particulars: Enterococcus faecium. How it is done:
as §1, §2

In patent US20220402914A1, “Tryptoline-Based Benzothiazoles and their use as Antibiotics and Antibiotic Resistance-Modifying Agents” (The Regents of the University of Colorado, a body corporate, priority 2019, published 2022) one finds GI50 and MIC data, which are given here for one compound.

Counter-ions that a name gives are not always drawn.

In data set [1], `N=C(N)NCC1CN(c2nc3ccc(Cl)cc3s2)Cc2[nH]c3ccc(Cl)cc3c21` (racemic) [Compound 12g, 1-((6-chloro-2-(6-chlorobenzo[d]thiazol-2-yl)-2,3,4,9-tetrahydro-1H-pyrido[3,4-b]indol-4-yl)methyl)guanidine hydrochloride] gave a GI50 at 24 h of 14.1 µg/mL. Also, the MIC against MRSA-252 turned out to be 2 µg/mL; against MSSA, 0.5 µg/mL; in the data set on MRSA ATCC BAA-44 (hydrochloride) it was 1 µg/mL; with MRSA ATCC BAA-44 (Staphylococcus aureus), 2 µg/mL; against B. subtilis NR-607, 2 µg/mL; in the data set with E. faecium HM-460, 4 µg/mL. In addition, in the data set with E. faecium 28977, the MIC was found to be 2 µg/mL.

Broadly, the GI50 is the concentration giving 50% growth inhibition. A lower GI50 goes with more potent growth inhibition. The MIC is the least concentration at which growth counts as inhibited. Low values mean a more susceptible organism, high ones a less susceptible organism.
